Legend:
[1] = test system: HeLa cells; experiment: Pilot cell-based bioassay: 10 μg/ml saponin with or without 1.5 pM dianthin-EGF, 72 h, relative cell viability; design: key to Cell killing activity (+ or −): Cell killing activity (+ or −); Cell killing activity (+ or −)
Description: HeLa cells were incubated for 72 h with the following constructs and cell viability before and after the 72 h-incubation was assessed. In the experiments, cells were exposed to 1.5 pM dianthin-EGF conjugate. A negative control were cells incubated with buffer vehicle and 10 microgram/ml saponin, without dianthin-EGF. Cell viability was set to 100% for the control in which both saponin and EGF-dianthin were omitted. […] Cell viability after 72 h was essentially 0%. For the chemically modified saponin variants, 10 microgram/ml saponin was tested in combination with 1.5 pM dianthin-EGF.

[2] = test system: HeLa (EGFR+) cells; experiment: Saponin titration in presence and absence of […] EGFdianthin, cell viability; type: cell-based; settings: in absence of EGFdianthin
Description: To extend this test, saponins from other sources were analyzed. A saponin purified from a root extract of Gypsophila elegans M.Bieb. […] FIG. 63C).

[3] = test system: A431 (EGFR++) cells; experiment: Saponin derivative titration in presence and absence of […] EGFdianthin, cell viability; type: cell-based; settings: A431, without EGFdianthin
[4] = Critical micellar concentration (CMC) by ANS fluorescence; type: physicochemical
Description: The critical micellar concentration (CMC) of saponins derived from Saponaria officinalis (SO) (Table A7) and derived from Quillaja saponaria (QS) (Table A8, and Table A9) was determined by the method of DeVendittis et al. (A fluorimetric method for the estimation of the critical micelle concentration of surfactants, Analytical Biochemistry, Volume 115, Issue 2, August 1981, Pages 278-286) as follows:
(§1) The emission spectrum of 8-Anilinonaphthalene-1-sulfonic acid (ANS) in either purified water (MQ) or PBS (Dulbecco's PBS+/+) was determined at dry weight concentrations of saponins ranging from 1 to 1400 pM to cover the range below and above the CMC. Above the CMC, the fluorescence yield of ANS increases and the wavelength of maximum emission decreases due to portioning of the fluorescent dye into micelles. Fluorescence yields were recorded on a Fluoroskan Ascent FL (Thermo Scientific) at an excitation wavelength of 355 nm, and an emission wavelength of 460 nm. 6 μg at a concentration of 75.86 pM of ANS were used per sample and measurement.
The critical micellar concentration (CMC) of saponins was determined by the method of DeVendittis et al. (A fluorimetric method for the estimation of the critical micelle concentration of surfactants, Analytical Biochemistry, Volume 115, Issue 2, August 1981, Pages 278-286) as follows:
as §1, with “μM” for “pM”

[5] = test system: EGFR expressing cells (HeLa and A431); settings: summary in description
[6] = test system: HeLa cells; experiment: cells; type: cell-based; settings: saponin alone, read-out: IC50 toxicity
Description: (FIGS. 66a and 66B). Next toxicity was determined, for this the modified saponins were titrated on HeLa and A431 cells. […] Next toxicity was determined, for this the modified saponins were titrated on HeLa and A431 cells.

[7] = test system: EGFR expressing cells (A431); experiment: Saponin titration on fixed 10 pM cetuximab-saporin, cell viability (MTS); type: cell-based; settings: without cetuximab-saporin
[8] = test system: EGFR expressing cells (A431); experiment: Saponin titration on fixed 10 pM EGFdianthin, cell viability (MTS); type: cell-based; settings: without EGFdianthin
[9] = test system: A2058 (EGFR−) cells; experiment: Saponin derivative titration in presence and absence of […] EGFdianthin, cell viability; type: cell-based; settings: without EGFdianthin
[10] = 10 μg/ml SO1861 or SO1861-derivative + […] EGFdianthin
[11] = 10 μg/ml SO1861 or SO1861-derivative alone

Compound: CC(=O)OC1C(C)OC(OC2C(C)OC(OC(=O)C34CCC(C)(C)CC3C3=CCC5C6(C)CCC(OC7OC(C(=O)O)C(O)C(OC8OCC(O)C(O)C8O)C7OC7OC(CO)C(O)C(O)C7O)C(C)(C=NNC(=O)CCOCCOCCOCCOCCN=[N+]=[N-])C6CCC5(C)C3(C)CC4O)C(OC3OC(C)C(OC4OCC(O)C(OC5OC(CO)C(O)C(O)C5O)C4O)C(O)C3O)C2O)C(O)C1OC1OCC(O)C(O)C1O (stereo not drawn)
- Cell killing activity (+ or −) [1, 10]: +
- Cell killing activity (+ or −) [1, 11]: −
- IC50 ([2]; read-out: General toxicity (IC50 / highest concentration)): > 10 µM
- IC50 ([3]; read-out: Toxicity as single compound): > 10 µM

Compound: CC(=O)OC1C(C)OC(OC2C(C)OC(OC(=O)[C@]34CCC(C)(C)CC3C3=CCC5[C@@]6(C)CC[C@H](OC7OC(C(=O)O)C(O)C(OC8OCC(O)C(O)C8O)C7OC7OC(CO)C(O)C(O)C7O)[C@@](C)(CO)C6CC[C@@]5(C)[C@]3(C)C[C@H]4O)C(OC3OC(C)C(OC4OCC(O)C(OC5OC(CO)C(O)C(O)C5O)C4O)C(O)C3O)C2O)C(O)C1OC1OCC(O)C(O)C1O (stereo partly drawn) [Molecule 6]
- CMC compared to corresponding underivatised saponin [4]: increased CMC
- Endosomal escape enhancing activity (enhancement of cytotoxicity of effector conjugate) [5]: have the capacity to enhance the cytotoxic effect

Compound: CC1OC(OC2C(C)OC(OC(=O)[C@]34CCC(C)(C)CC3C3=CCC5[C@@]6(C)CC[C@H](OC7OC(C(=O)O)C(O)C(OC8OCC(O)C(O)C8O)C7OC7OC(CO)C(O)C(O)C7O)[C@@](C)(C=O)C6CC[C@@]5(C)[C@]3(C)C[C@H]4O)C(OC3OC(C)C(OC4OCC(O)C(OC5OC(CO)C(O)C(O)C5O)C4O)C(O)C3O)C2O)C(O)C(OC2OCC(O)C(O)C2O)C1O (stereo partly drawn) [Molecule 8]
- CMC compared to corresponding underivatised saponin [4]: increased CMC
- Endosomal escape enhancing activity (enhancement of cytotoxicity of effector conjugate) [5]: display activity

Compound: CC1OC(OC2C(C)OC(OC(=O)[C@]34CCC(C)(C)CC3C3=CCC5[C@@]6(C)CC[C@H](OC7OC(C(=O)O)C(O)C(OC8OCC(O)C(O)C8O)C7OC7OC(CO)C(O)C(O)C7O)[C@@](C)(CO)C6CC[C@@]5(C)[C@]3(C)C[C@H]4O)C(OC3OC(C)C(OC4OCC(O)C(OC5OC(CO)C(O)C(O)C5O)C4O)C(O)C3O)C2O)C(O)C(OC2OCC(O)C(O)C2O)C1O (stereo partly drawn) [Molecule 10]
- CMC compared to corresponding underivatised saponin [4]: increased CMC
- Endosomal escape enhancing activity (enhancement of cytotoxicity of effector conjugate) [5]: have the capacity to enhance the cytotoxic effect

Compound: CC(=O)OC1C(C)OC(OC2C(C)OC(OC(=O)C34CCC(C)(C)CC3C3=CCC5C6(C)CCC(OC7OC(C(=O)NC(C)(CO)CO)C(O)C(OC8OCC(O)C(O)C8O)C7OC7OC(CO)C(O)C(O)C7O)C(C)(C=NNC(=O)CCCCCN7C(=O)C=CC7=O)C6CCC5(C)C3(C)CC4O)C(OC3OC(C)C(OC4OCC(O)C(OC5OC(CO)C(O)C(O)C5O)C4O)C(O)C3O)C2O)C(O)C1OC1OCC(O)C(O)C1O (stereo not drawn) [Molecule 14]
- Endosomal escape enhancing activity (enhancement of cytotoxicity of effector conjugate) [5]: have the capacity to enhance the cytotoxic effect

Compound: CC1OC(OC2C(C)OC(OC(=O)C34CCC(C)(C)CC3C3=CCC5C6(C)CCC(OC7OC(C(=O)O)C(O)C(OC8OCC(O)C(O)C8O)C7OC7OC(CO)C(O)C(O)C7O)C(C)(C=NNC(=O)CCCCCN7C(=O)C=CC7=O)C6CCC5(C)C3(C)CC4O)C(OC3OC(C)C(OC4OCC(O)C(OC5OC(CO)C(O)C(O)C5O)C4O)C(O)C3O)C2O)C(O)C(OC2OCC(O)C(O)C2O)C1O (stereo not drawn) [Molecule 15]
- CMC compared to corresponding underivatised saponin [4]: increased CMC
- Endosomal escape enhancing activity (enhancement of cytotoxicity of effector conjugate) [5]: have the capacity to enhance the cytotoxic effect

Compound: CC(=O)OC1C(C)OC(OC2C(C)OC(OC(=O)[C@]34CCC(C)(C)CC3C3=CCC5[C@@]6(C)CC[C@H](OC7OC(C(=O)NCCN8C(=O)C=CC8=O)C(O)C(OC8OCC(O)C(O)C8O)C7OC7OC(CO)C(O)C(O)C7O)[C@@](C)(C=O)C6CC[C@@]5(C)[C@]3(C)C[C@H]4O)C(OC3OC(C)C(OC4OCC(O)C(OC5OC(CO)C(O)C(O)C5O)C4O)C(O)C3O)C2O)C(O)C1OC1OCC(O)C(O)C1O (stereo partly drawn) [Molecule 18]
- Endosomal escape enhancing activity (enhancement of cytotoxicity of effector conjugate) [5]: display activity

Compound: CC1OC(OC2C(C)OC(OC(=O)[C@]34CCC(C)(C)CC3C3=CCC5[C@@]6(C)CC[C@H](OC7OC(C(=O)NCCN8C(=O)C=CC8=O)C(O)C(OC8OCC(O)C(O)C8O)C7OC7OC(CO)C(O)C(O)C7O)[C@@](C)(C=O)C6CC[C@@]5(C)[C@]3(C)C[C@H]4O)C(OC3OC(C)C(OC4OCC(O)C(OC5OC(CO)C(O)C(O)C5O)C4O)C(O)C3O)C2O)C(O)C(OC2OCC(O)C(O)C2O)C1O (stereo partly drawn) [Molecule 19]
- Endosomal escape enhancing activity (enhancement of cytotoxicity of effector conjugate) [5]: display activity

Compound: CC(=O)OC1C(C)OC(OC2C(C)OC(OC(=O)[C@]34CCC(C)(C)CC3C3=CCC5[C@@]6(C)CC[C@H](OC7OC(C(=O)NCCN8C(=O)C=CC8=O)C(O)C(OC8OCC(O)C(O)C8O)C7OC7OC(CO)C(O)C(O)C7O)[C@@](C)(CO)C6CC[C@@]5(C)[C@]3(C)C[C@H]4O)C(OC3OC(C)C(OC4OCC(O)C(OC5OC(CO)C(O)C(O)C5O)C4O)C(O)C3O)C2O)C(O)C1OC1OCC(O)C(O)C1O (stereo partly drawn) [Molecule 20]
- Endosomal escape enhancing activity (enhancement of cytotoxicity of effector conjugate) [5]: have the capacity to enhance the cytotoxic effect

Compound: CC(=O)OC1C(C)OC(OC2C(C)OC(OC(=O)[C@]34CCC(C)(C)CC3C3=CCC5[C@@]6(C)CC[C@H](OC7OC(C(=O)O)C(O)C(OC8OCC(O)C(O)C8O)C7OC7OC(CO)C(O)C(O)C7O)[C@@](C)(C=O)C6CC[C@@]5(C)[C@]3(C)C[C@H]4O)C(OC3OC(C)C(OC4OCC(O)C(OC5OC(CO)C(O)C(O)C5O)C4O)C(O)C3O)C2O)C(O)C1OC1OCC(O)C(O)C1O (stereo partly drawn) [SO1861, reference compound]
- IC50 [6]: 1000 nM
- CMC value ([4]; PBS): 185 µM
- CMC ([4]; Table A7, determined in PBS): 185 ± 19 µM
- Cell killing activity (+ or −) [1, 10]: +
- Cell killing activity (+ or −) [1, 11]: −
- Cell viability after 72 h ([1]; 10 microgram/ml saponin + […] dianthin-EGF, HeLa cells): ~0%
- Cell killing activity of saponin alone [7]: no cell killing activity
- Cell killing activity of saponin alone [8]: no cell killing activity
- General toxicity (IC50 / highest concentration) [2]: strong cell viability reduction
- Toxicity as single compound [3]: strong cell viability reduction
- Toxicity as single compound [9]: strong cell viability reduction
